{"source": "patent US20230183665A1", "about": "“THERMOSTABLE GLUCOCEREBROSIDASE” (TEIKYO UNIVERSITY, priority 2020, published 2023)", "key": {"[1]": {"biological_target": "T1, RGC1 (Oryza sativa subsp. japonica, UniProt Q8L7J2)", "T1 construct": "The resulting solution was used as rice-derived glucocerebrosidase (RGC1); from tissue; host or cells: stems of rice (Oryza sativa L. cv. Nipponbare)", "T1 sequence (Q8L7J2 38-521 limits assumed)": "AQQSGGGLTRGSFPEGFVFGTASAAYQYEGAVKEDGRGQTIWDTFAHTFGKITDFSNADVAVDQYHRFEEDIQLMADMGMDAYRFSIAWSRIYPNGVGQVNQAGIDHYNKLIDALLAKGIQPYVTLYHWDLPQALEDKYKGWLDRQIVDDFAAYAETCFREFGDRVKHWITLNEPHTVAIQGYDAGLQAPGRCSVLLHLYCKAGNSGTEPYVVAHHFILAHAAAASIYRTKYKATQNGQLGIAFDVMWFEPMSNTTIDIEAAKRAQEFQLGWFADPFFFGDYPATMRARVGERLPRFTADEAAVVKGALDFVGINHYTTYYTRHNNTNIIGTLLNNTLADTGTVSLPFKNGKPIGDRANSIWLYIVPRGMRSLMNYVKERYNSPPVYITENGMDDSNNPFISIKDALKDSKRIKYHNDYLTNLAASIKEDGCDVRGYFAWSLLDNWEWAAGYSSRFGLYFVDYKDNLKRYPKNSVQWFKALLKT", "test": "Substrate specificity of RGC1: ceramide generated from glucosylceramide or synthetic β-glucoside substrates (Example 3)", "assay_type": "biochemical, rice (Oryza sativa L. cv. Nipponbare)", "conditions": "enzyme RGC1, 12.5 μM substrate, pH 5.5, 37° C., 15 minutes; for Relative activity (%): activity with d18:1(4E)-C8:0-GluCer defined as 100, average of five tests", "method": "(§1) The glucocerebrosidase activity of the fraction was measured as follows: a predetermined amount of sample was added to a 50 mM acetate buffer solution (pH 5.5) containing 100 μM glucosylceramide (cerebroside B), 0.1% Tween 20, and 0.05% sodium cholate, and incubated at 37° C. for 15 minutes. Subsequently, a 4-fold amount of ethanol was added to the obtained reaction solution, mixed therewith, and then centrifuged at 15000 rpm for 20 minutes. The centrifuged supernatant was subjected to high-performance liquid chromatography analysis. In the high-performance liquid chromatography analysis, the sample was injected to TSKgel ODS-120T column (4.6 mm×30 cm), and a solvent having an ethanol concentration of 83% was flowed at a flow rate of 0.8 mL/min, followed by detection in a UV detector (ultraviolet absorption wavelength: 215 nm) to thereby measure the amount of ceramide newly generated through enzymatic reaction. The amount of ceramide was determined by using, as a standard, ceramide generated from cerebroside B by imiglucerase (manufactured by Sanofi S. A.), human-derived glucocerebrosidase. The molecular weight of the generated ceramide was examined by negative LC-MS (manufactured by Agilent Technologies, Inc.) to thereby confirm that it was ceramide generated from cerebroside B (ESI-MS m/z: 564.5[M-H]^−). Glucocerebrosidase activity per mL of the enzyme solution was calculated when the amount of the enzyme that generated 1 μmol of ceramide for 1 minute in the enzymatic reaction solution was defined as 1 unit (U).\nRGC1 obtained in Example 2 was added to 12.5 μM glucosylceramide (one of the 12 animal-derived, plant-derived, or filamentous fungus-derived ones in Table 2 below) or synthetic β-glucoside, and a 50 mM acetate buffer solution (pH 5.5) containing 0.1% Tween 20 and 0.05% sodium cholate, and incubated at 37° C. for 15 minutes. Subsequently, a 4-fold amount of ethanol was added to the obtained reaction solution, mixed therewith, and then centrifuged under a condition of 15000 rpm for 20 minutes. The amount of ceramide in the supernatant was measured by high-performance liquid chromatography using various reverse-phase columns to thereby determine glucocerebrosidase activity. The amount of ceramide was determined by using, as a standard, ceramide generated from the glucosylceramide by imiglucerase. The glucocerebrosidase activity was determined as relative activity when activity in the case of using animal-derived glucosylceramide d18:1(4E)-C8:0-GluCer as a substrate was defined as 100 (rightmost column of Table 2 below). This test was conducted five times, and average relative activity was determined therefrom."}, "[2]": {"test": "Optimum temperature for glucocerebrosidase activity (Examples 5, 12, 20)", "assay_type": "biochemical", "method": "as §1\nRGC1 obtained in Example 2 and imiglucerase were each added to a 50 mM acetate buffer solution (pH 5.5) containing 100 μM glucosylceramide (cerebroside B), 0.1% Tween 20, and 0.05% sodium cholate, and incubated at each temperature for 15 minutes. Subsequently, a 4-fold amount of ethanol was added to the obtained reaction solution, mixed therewith, and then centrifuged under a condition of 15000 rpm for 20 minutes. The supernatant was subjected to high-performance liquid chromatography analysis to measure the amount of ceramide generated through enzymatic reaction. The high-performance liquid chromatography analysis was carried out in the same manner as in Example 2. The amount of ceramide and enzymatic activity were also calculated in the same manner as in Example 2. A temperature that attained the highest glucocerebrosidase activity was regarded as the optimum temperature. This test was conducted three times, and an average value was determined therefrom.\nThe optimum temperatures for the glucocerebrosidase activity of SGC1 obtained in Example 11 and imiglucerase were confirmed by the same method as in Example 5.\nEnzyme extracts derived from various plants which were obtained in accordance with Example 19, the purified rice-derived RGC1 mentioned above and the purified soybean-derived SGC1 mentioned above were each added to a 50 mM sodium acetate buffer solution (pH 5.5) containing 100 μM glucosylceramide (cerebroside B), 0.1% Tween 20, and 0.05% sodium cholate, and incubated at each temperature for 15 minutes. Subsequently, a 4-fold amount of ethanol was added to the obtained reaction solution, mixed therewith, and then centrifuged at 15000 rpm for 20 minutes. The supernatant was subjected to high-performance liquid chromatography analysis to measure the amount of ceramide generated through enzymatic reaction. The high-performance liquid chromatography analysis was carried out in the same manner as in Example 5. The amount of ceramide and enzymatic activity were also calculated in the same manner as in Example 5. As a result, a temperature that attained the highest glucocerebrosidase activity was regarded as the optimum temperature. This test was conducted three times, and an average value was determined therefrom."}}, "data": [{"molecule": "CCCCCCCCCCCCC/C=C/[C@@H](O)[C@H](CO[C@@H]1O[C@H](CO)[C@@H](O[C@@H]2O[C@H](CO)[C@H](O)[C@H](O[C@]3(C(=O)O)C[C@H](O)[C@@H](NC(C)=O)C([C@H](O)[C@H](O)CO)O3)[C@H]2O)[C@H](O)C1O)NC(=O)CCCCCCCCCCCCCCCCC", "note": "(some centres unmarked) [d18:1(4E)-C18:0-GM3]", "values": [{"measurement": "reaction of RGC1 with the substrate (in words)", "setting": "[1]", "result": "rarely reacted"}]}, {"molecule": "CCCCCCCCCCCCCC[C@@H](O)C(=O)N[C@@H](CO[C@@H]1O[C@H](CO)[C@@H](O)[C@H](O)[C@H]1O)[C@H](O)/C=C/CC/C=C(\\C)CCCCCCCCC", "note": "[d19:2(4E,8E,9Me)-C16h:0-GluCer, (4E,8E)-N-D-2′-hydroxypalmitoyl-1-O-β-D-glucopyranosyl-9-methyl-4,8-sphingadienine]", "values": [{"measurement": "Relative activity (%)", "setting": "[1]", "result": 116.7, "unit": "%"}]}, {"molecule": "CCCCCCCCCCCCCC/C=C/[C@@H](O)C(=O)N[C@@H](CO[C@@H]1O[C@H](CO)[C@@H](O)[C@H](O)[C@H]1O)[C@H](O)/C=C/CC/C=C(\\C)CCCCCCCCC", "note": "[d19:2(4E,8E,9Me)-C18h:1-GluCer, (4E,8E)-N-D-2′-hydroxy-(E)-3′-octadecenoyl-1-O-β-D-glucopyranosyl-9-methyl-4,8-sphingadienine]", "values": [{"measurement": "Relative activity (%)", "setting": "[1]", "result": 113.2, "unit": "%"}]}, {"molecule": "O=[N+]([O-])c1ccc(O[C@@H]2O[C@H](CO)[C@@H](O)[C@H](O)[C@H]2O)cc1", "note": "[pNP-β-glucoside, 4-nitrophenyl-β-D-glucopyranoside]", "values": [{"measurement": "reaction of RGC1 with the substrate (in words)", "setting": "[1]", "result": "rarely reacted"}, {"measurement": "Relative activity (%)", "setting": "[1]", "result": 2.5, "unit": "%"}]}, {"molecule": "Imiglucerase: human-derived glucocerebrosidase produced in Chinese hamster ovary cells by gene recombination (Sanofi S. A.), belonging to GH30 (protein, UniProt P04062 40-536, looked up, imiglucerase, human-derived glucocerebrosidase produced in Chinese hamster ovary cells by gene recombination (Sanofi S. A.), belonging to GH30) Lysosomal acid …: ARPCIPKSFGYSSVVCVCNATYCDSFDPPTFPALGTFSRYESTRSGRRMELSMGPIQANHTGTGLLLTLQPEQKFQKVKGFGGAMTDAAALNILALSPPAQNLLLKSYFSEEGIGYNIIRVPMASCDFSIRTYTYADTPDDFQLHNFSLPEEDTKLKIPLIHRALQLAQRPVSLLASPWTSPTWLKTNGAVNGKGSLKGQPGDIYHQTWARYFVKFLDAYAEHKLQFWAVTAENEPSAGLLSGYPFQCLGFTPEHQRDFIARDLGPTLANSTHHNVRLLMLDDQRLLLPHWAKVVLTDPEAAKYVHGIAVHWYLDFLAPAKATLGETHRLFPNTMLFASEACVGSKFWEQSVRLGSWDRGMQYSHSIITNLLYHVVGWTDWNLALNPEGGPNWVRNFVDSPIIVDITKDTFYKQPMFYHLGHFSKFIPEGSQRVGLVASQKNDLDAVALMHPDGSAVVVVLNRSSKDVPLTIKDPAVGFLETISPGYSIHTYLWRRQ", "values": [{"measurement": "Optimum temperature (° C.)", "setting": "[2]; Example 5, 100 μM cerebroside B, pH 5.5, 15 minutes at each temperature, average of three tests", "result": 42.5, "unit": "°C"}, {"measurement": "Optimum temperature (° C.)", "setting": "[2]; Example 12, same method as Example 5", "result": 42.5, "unit": "°C"}, {"measurement": "Optimum temperature (° C.)", "setting": "[2]; Example 20, 100 μM cerebroside B, pH 5.5, 15 minutes at each temperature, average of three tests", "result": 42.5, "unit": "°C"}]}]}
